Results as given in US8426394B2, “Progesterone antagonists such as CDB-4124 in the treatment of endometriosis, uterine fibroids, dysmenorrhea, breast cancer, etc” (Repros Therapeutics Inc., priority 2008, dated 2013).

Legend:
[1] = system: pre-menopausal adult women diagnosed with endometriosis; test: Six month study of Proellex (CDB-4124) in the treatment of endometriosis; format: in vivo, human
Procedure: Pain reduction also occurred more rapidly than with the active control, Lucrin®. The response of pain to treatment in this study was analyzed in two ways. Patients in the study maintained daily pain diaries to record the severity and frequency of pain. In addition, at each office visit, patients filled out endometriosis symptom surveys that included a questionnaire that evaluated intensity of pain on a bad day on a scale of 0-10 with 10 being the greatest intensity. […] There appeared to be a dose dependent effect on pain reduction. […] This decrease in duration of pain was statistically better (p=0.0012) than the 117.8 (74%; standard deviation 51.4 days) pain free days achieved with Lucrin®. […] Patients on CDB-4124 12.5 mg and 25 mg doses had 115.9 (66%; standard deviation 69.2 days) and 133.6 (75%; standard deviation 27.4 days) pain free days, respectively. […] The 25 mg and 12.5 mg doses of CDB-4124 were not statistically different from Lucrin®. […] The intensity of pain was assessed by the question: “On a […], with 0 being no pain and 10 being extreme pain, how intense was your pain on a bad day?” The mean scores for intensity of pain at baseline were 6.3 for the CDB-4124 groups and 6.1 for the Lucrin® group. […] At month three all four active treatment groups had statistically significant reduction in pain compared with baseline, with the following scores: 3.7 (p=0.03) for 12.5 mg CDB-4124, 3.2 (p=0.03) for 25 mg CDB-4124, 1.6 (p=0.015) for 50 mg CDB-4124 and 1.5 (p=0.016) for Lucrin®. These dose related reductions continued until month six when the values for pain intensity were 2.0 (p=0.008), 2.8 (p=0.023), 0.6 (p=0.004) and 0.7 (p=0.016), respectively. Two months after stopping treatment pain returned and was of similar intensity in all four treatment groups.

[2] = system: endometrium; test: Endometrial biopsies of women in the CDB-4124 treatment groups; format: in vivo, human
Procedure: Endometrial biopsies were taken from 27 women exposed to 12.5 mg, 25 mg or 50 mg CDB-4124 for six months and 31 women with uterine fibroids exposed to 12.5 or 25 mg CDB-4124 for three months. Specimens were evaluated in a treatment blinded fashion utilizing the WHO diagnostic schema (Silverberg et al., tumors of the uterine corpus: epithelial tumors and related lesions. Tavassoli F A, Stratton M R, reditors. WHO Classification of Tumors: Pathology and Genetics of Tumors of the Breast and Female Genital Organs. Lyon, France: IARC Press, 2003: 221-232). A consensus primary end point result was determined for each specimen by majority (two or more of three pathologists agree), or in the event of all pathologists disagreeing the “worst” diagnosis of the three was assigned. Additional findings were recorded using a structured data collection instrument. All raw data was provided to the reviewing pathologists, who undertook an independent analysis that was the basis for their conclusions.

Q: How did the “intensity of pain on a bad day (score)” value ([1]; month six, 12.5 mg CDB-4124, scale 0-10, p=0.008) turn out when `COCC(=O)[C@@]1(OC(C)=O)CC[C@H]2[C@@H]3CCC4=CC(=O)CCC4=C3[C@@H](c3ccc(N(C)C)cc3)C[C@@]21C` [CDB-4124, 21-methoxy-17α-acetoxy-11β-(4 N,N-dimethylaminophenyl)-19-norpregna-4,9-diene-3,20-dione] was run?
A: The value was 2.0.

Q: What about the “intensity of pain on a bad day (score)” value ([1]; month six, 25 mg CDB-4124, scale 0-10, p=0.023) of the same compound?
A: Its value is 2.8.

Q: What about the “intensity of pain on a bad day (score)” value ([1]; month six, 50 mg CDB-4124, scale 0-10, p=0.004) of the same compound?
A: Its value is 0.6.

Q: And the “intensity of pain on a bad day (score)” value ([1]; month three, 12.5 mg CDB-4124, scale 0-10, baseline 6.3, p=0.03)?
A: Its value is 3.7.

Q: And the “intensity of pain on a bad day (score)” value ([1]; month three, 25 mg CDB-4124, scale 0-10, baseline 6.3, p=0.03)?
A: Its value is 3.2.

Q: And the “intensity of pain on a bad day (score)” value ([1]; month three, 50 mg CDB-4124, scale 0-10, baseline 6.3, p=0.015)?
A: The value was 1.6.

Q: What about the “consensus primary diagnosis of endometrial biopsy (WHO schema)” value ([2]; 12.5, 25 or 50 mg for six months, 12.5 or 25 mg for three months) of the same compound?
A: Its value is “benign endometrium”.

Q: And the “blood vessel wall thickening and latticed capillary patterns” value ([2]; endometrial biopsies)?
A: The value was “did not induce”.

Q: What about the “most prominent secondary finding within the benign category” value ([2]; endometrial biopsies, more prominent at lowest doses) of the same compound?
A: The value was “cystic dilation of glands”.

Q: And the endometrial proliferation ([2]; every concentration tested (12.5, 25, 50 mg))?
A: Its endometrial proliferation is “suppressed”.
